The results in this text go back to US20110294778A1, “HEPATITIS C INHIBITOR COMPOUNDS” (priority 2009, published 2011).

Assay [1] relates to HCV genotype 1a (strain H77) subgenomic replicon with NS3 resistance mutation R155K in Huh-7 cells. Nature of the assay: HCV replicon RNA replication assay (NS3 protease variants), genotype 1a R155K. Particulars: Hepatitis C virus, Huh-7, 72 h, read-out: R155K 1a EC50 (nM). The assay is classed as cell-based. A general note: Replicon systems follow genome replication, usually without infectious particles.

Assay [2] has as its system HCV genotype 1b (Con-1) subgenomic replicon with NS3 resistance mutation D168V in Huh-7 cells. The experiment in a line: HCV replicon RNA replication assay (NS3 protease variants), genotype 1b D168V. The format is cell-based. Particulars: Hepatitis C virus, Huh-7, 72 h, read-out: D168V 1b EC50 (nM).

As usually defined, the EC50 is the concentration giving half of the maximal effect. As to `CCn1ccc(C(=O)N[C@H]2CCCCC/C=C\[C@@H]3C[C@@]3(C(=O)NS(=O)(=O)C3(C)CC3)NC(=O)[C@@H]3C[C@@H](Oc4cc(OC(C)C)nc5c(C)c(OC)ccc45)CN3C2=O)n1` [Compound 1019, (2R,6S,12Z,13aS,14aR,16aS)-6-{[(1-ethyl-1H-pyrazol-3-yl)carbonyl]amino}-2-{[7-methoxy-8-methyl-2-(propan-2-yloxy)quinolin-4-yl]oxy}-N-[(1-methylcyclopropyl)sulfonyl]-5,16-dioxo-1,2,3,6,7,8,9,10,11,13a,14,15,16,16a-tetradecahydrocyclopropa[e]pyrrolo[1,2-a][1,4]diazacyclopentadecine-14a(5H)-carboxamide], the figures for the EC50 in assay [1] and in assay [2] were 0.88 nM and 0.16 nM, respectively.
In the case of `COc1c(Cl)ccc2c(O[C@@H]3C[C@H]4C(=O)N[C@]5(C(=O)NS(=O)(=O)C6(C)CC6)C[C@H]5/C=C\CCCCC[C@H](NC(=O)c5ccn(C)n5)C(=O)N4C3)cc(OC(C)C)nc12` [Compound 1010, (2R,6S,12Z,13aS,14aR,16aS)-2-{[7-chloro-8-methoxy-2-(propan-2-yloxy)quinolin-4-yl]oxy}-N-[(1-methylcyclopropyl)sulfonyl]-6-{[(1-methyl-1H-pyrazol-3-yl)carbonyl]amino}-5,16-dioxo-1,2,3,6,7,8,9,10,11,13a,14,15,16,16a-tetradecahydrocyclopropa[e]pyrrolo[1,2-a][1,4]diazacyclopentadecine-14a(5H)-carboxamide], the EC50 in assay [1] amounted to 7 nM; in assay [2] it was 0.33 nM.
For the compound `CCOc1cc(O[C@@H]2C[C@H]3C(=O)N[C@]4(C(=O)NS(=O)(=O)C5(C)CC5)C[C@H]4/C=C\CCCCC[C@H](NC(=O)N(C)C)C(=O)N3C2)c2ccc(OC)c(C)c2n1` [Compound 2006, (2R,6S,12Z,13aS,14aR,16aS)-6-[(dimethylcarbamoyl)amino]-2-[(2-ethoxy-7-methoxy-8-methylquinolin-4-yl)oxy]-N-[(1-methylcyclopropyl)sulfonyl]-5,16-dioxo-1,2,3,6,7,8,9,10,11,13a,14,15,16,16a-tetradecahydrocyclopropa[e]pyrrolo[1,2-a][1,4]diazacyclopentadecine-14a(5H)-carboxamide], the EC50 in assay [1] was determined as 9.9 nM; in assay [2], 2.1 nM.
The corresponding values for `COc1ccc2c(O[C@@H]3C[C@H]4C(=O)N[C@]5(C(=O)NS(=O)(=O)C6(C)CC6)C[C@H]5/C=C\CCCCC[C@H](NC(=O)c5ccn(C(F)F)n5)C(=O)N4C3)cc(OC(C)C)nc2c1C` [Compound 1018, (2R,6S,12Z,13aS,14aR,16aS)-6-({[1-(difluoromethyl)-1H-pyrazol-3-yl]carbonyl}amino)-2-{[7-methoxy-8-methyl-2-(propan-2-yloxy)quinolin-4-yl]oxy}-N-[(1-methylcyclopropyl)sulfonyl]-5,16-dioxo-1,2,3,6,7,8,9,10,11,13a,14,15,16,16a-tetradecahydrocyclopropa[e]pyrrolo[1,2-a][1,4]diazacyclopentadecine-14a(5H)-carboxamide] are 2.4 nM and 0.14 nM.
The corresponding values for `CCOc1cc(O[C@@H]2C[C@H]3C(=O)N[C@]4(C(=O)NS(=O)(=O)C5(C)CC5)C[C@H]4/C=C\CCCCC[C@H](NC(=O)N4CC(F)C4)C(=O)N3C2)c2ccc(OC)c(C)c2n1` [Compound 2014, (2R,6S,12Z,13aS,14aR,16aS)-2-[(2-ethoxy-7-methoxy-8-methylquinolin-4-yl)oxy]-6-{[(3-fluoroazetidin-1-yl)carbonyl]amino}-N-[(1-methylcyclopropyl)sulfonyl]-5,16-dioxo-1,2,3,6,7,8,9,10,11,13a,14,15,16,16a-tetradecahydrocyclopropa[e]pyrrolo[1,2-a][1,4]diazacyclopentadecine-14a(5H)-carboxamide] are 8.4 nM and 0.53 nM.
As to `Cc1c(O)ccc2c(O[C@@H]3C[C@H]4C(=O)N[C@]5(C(=O)NS(=O)(=O)C6CC6)C[C@H]5/C=C\CCCCC[C@H](NC(=O)c5ccn(C)n5)C(=O)N4C3)cc(OC(C)C)nc12` [Compound 1037, (2R,6S,12Z,13aS,14aR,16aS)-N-(cyclopropylsulfonyl)-2-{[7-hydroxy-8-methyl-2-(propan-2-yloxy)quinolin-4-yl]oxy}-6-{[(1-methyl-1H-pyrazol-3-yl)carbonyl]amino}-5,16-dioxo-1,2,3,6,7,8,9,10,11,13a,14,15,16,16a-tetradecahydrocyclopropa[e]pyrrolo[1,2-a][1,4]diazacyclopentadecine-14a(5H)-carboxamide], the EC50 in assay [1] turned out to be 4.3 nM; in assay [2], 3.7 nM.
Regarding `COc1c(Cl)ccc2c(O[C@@H]3C[C@H]4C(=O)N[C@]5(C(=O)NS(=O)(=O)C6(C)CC6)C[C@H]5/C=C\CCCCC[C@H](NC(=O)c5cnn(C)n5)C(=O)N4C3)cc(OC(C)C)nc12` [Compound 1011, (2R,6S,12Z,13aS,14aR,16aS)-2-{[7-chloro-8-methoxy-2-(propan-2-yloxy)quinolin-4-yl]oxy}-N-[(1-methylcyclopropyl)sulfonyl]-6-{[(2-methyl-2H-1,2,3-triazol-4-yl)carbonyl]amino}-5,16-dioxo-1,2,3,6,7,8,9,10,11,13a,14,15,16,16a-tetradecahydrocyclopropa[e]pyrrolo[1,2-a][1,4]diazacyclopentadecine-14a(5H)-carboxamide], the EC50 in assay [1] was determined as 8.4 nM; in assay [2] it was 0.63 nM.
The corresponding values for `COc1ccc2c(O[C@@H]3C[C@H]4C(=O)N[C@]5(C(=O)NS(=O)(=O)C6CC6)C[C@H]5/C=C\CCCCC[C@H](NC(=O)c5cc(C)n(C)n5)C(=O)N4C3)cc(OC(C)C)nc2c1C` [Compound 1034, (2R,6S,12Z,13aS,14aR,16aS)-N-(cyclopropylsulfonyl)-6-{[(1,5-dimethyl-1H-pyrazol-3-yl)carbonyl]amino}-2-{[7-methoxy-8-methyl-2-(propan-2-yloxy)quinolin-4-yl]oxy}-5,16-dioxo-1,2,3,6,7,8,9,10,11,13a,14,15,16,16a-tetradecahydrocyclopropa[e]pyrrolo[1,2-a][1,4]diazacyclopentadecine-14a(5H)-carboxamide] are 7.7 nM and 0.67 nM.
The corresponding values for `COc1ccc2c(O[C@@H]3C[C@H]4C(=O)N[C@]5(C(=O)NS(=O)(=O)C6CC6)C[C@H]5/C=C\CCCCC[C@H](NC(=O)N5CC(C)(C)C5)C(=O)N4C3)cc(OC(C)C)nc2c1C` [Compound 2011, (2R,6S,12Z,13aS,14aR,16aS)-N-(cyclopropylsulfonyl)-6-{[(3,3-dimethylazetidin-1-yl)carbonyl]amino}-2-{[7-methoxy-8-methyl-2-(propan-2-yloxy)quinolin-4-yl]oxy}-5,16-dioxo-1,2,3,6,7,8,9,10,11,13a,14,15,16,16a-tetradecahydrocyclopropa[e]pyrrolo[1,2-a][1,4]diazacyclopentadecine-14a(5H)-carboxamide] are 6.1 nM and 3.9 nM.
On to `COc1ccc2c(O[C@@H]3C[C@H]4C(=O)N[C@]5(C(=O)NS(=O)(=O)C6(C)CC6)C[C@H]5/C=C\CCCCC[C@H](NC(=O)c5ccn(CC(F)(F)F)n5)C(=O)N4C3)cc(OC3CCC3)nc2c1C` [Compound 1023, (2R,6S,12Z,13aS,14aR,16aS)-2-{[2-(cyclobutyloxy)-7-methoxy-8-methylquinolin-4-yl]oxy}-N-[(1-methylcyclopropyl)sulfonyl]-5,16-dioxo-6-({[1-(2,2,2-trifluoroethyl)-1H-pyrazol-3-yl]carbonyl}amino)-1,2,3,6,7,8,9,10,11,13a,14,15,16,16a-tetradecahydrocyclopropa[e]pyrrolo[1,2-a][1,4]diazacyclopentadecine-14a(5H)-carboxamide], for which the EC50 came out at 8.2 nM in assay [1] and 0.25 nM in assay [2].
The like results for `COc1ccc2c(O[C@@H]3C[C@H]4C(=O)N[C@]5(C(=O)NS(=O)(=O)C6CC6)C[C@H]5/C=C\CCCCC[C@H](NC(=O)c5ccn(CC(=O)N(C)C)n5)C(=O)N4C3)cc(OC(C)C)nc2c1C` [Compound 1002, (2R,6S,12Z,13aS,14aR,16aS)-N-(cyclopropylsulfonyl)-6-[({1-[2-(dimethylamino)-2-oxoethyl]-1H-pyrazol-3-yl}carbonyl)amino]-2-{[7-methoxy-8-methyl-2-(propan-2-yloxy)quinolin-4-yl]oxy}-5,16-dioxo-1,2,3,6,7,8,9,10,11,13a,14,15,16,16a-tetradecahydrocyclopropa[e]pyrrolo[1,2-a][1,4]diazacyclopentadecine-14a(5H)-carboxamide] were, in that order, 2.6 nM and 3 nM.
The corresponding values for `COCCn1ccc(C(=O)N[C@H]2CCCCC/C=C\[C@@H]3C[C@@]3(C(=O)NS(=O)(=O)C3CC3)NC(=O)[C@@H]3C[C@@H](Oc4cc(OC(C)C)nc5c(C)c(OC)ccc45)CN3C2=O)n1` [Compound 1006, (2R,6S,12Z,13aS,14aR,16aS)-N-(cyclopropylsulfonyl)-6-({[1-(2-methoxyethyl)-1H-pyrazol-3-yl]carbonyl}amino)-2-{[7-methoxy-8-methyl-2-(propan-2-yloxy)quinolin-4-yl]oxy}-5,16-dioxo-1,2,3,6,7,8,9,10,11,13a,14,15,16,16a-tetradecahydrocyclopropa[e]pyrrolo[1,2-a][1,4]diazacyclopentadecine-14a(5H)-carboxamide] are 7 nM and 0.33 nM.
The corresponding values for `CCOc1ccc2c(O[C@@H]3C[C@H]4C(=O)N[C@]5(C(=O)NS(=O)(=O)C6(C)CC6)C[C@H]5/C=C\CCCCC[C@H](NC(=O)c5ccn(C)n5)C(=O)N4C3)cc(OC(C)C)nc2c1Cl` [Compound 1001, (2R,6S,12Z,13aS,14aR,16aS)-2-{[8-chloro-7-ethoxy-2-(propan-2-yloxy)quinolin-4-yl]oxy}-N-[(1-methylcyclopropyl)sulfonyl]-6-{[(1-methyl-1H-pyrazol-3-yl)carbonyl]amino}-5,16-dioxo-1,2,3,6,7,8,9,10,11,13a,14,15,16,16a-tetradecahydrocyclopropa[e]pyrrolo[1,2-a][1,4]diazacyclopentadecine-14a(5H)-carboxamide] are 2.6 nM and 0.33 nM.
